Source: US12391737B2, “Soluble NPY2 receptor agonists” (Boehringer Ingelheim International GmbH, priority 2020, dated 2025)
pEC50, pKi: −log10 of the molar value. Where two headings read alike, the source gives them in different places.

Key:
[1] = target: T1, Human Neuropeptide Y2 Receptor (Homo sapiens, UniProt P49146); test: Radioligand binding competition assay (RLB); settings: for pKi: Table 3, 125I-PYY(1-36) competition, read-out: Ki
T1 construct: purchased CHEMICON HTS066M
T1 sequence (P49146 1-381): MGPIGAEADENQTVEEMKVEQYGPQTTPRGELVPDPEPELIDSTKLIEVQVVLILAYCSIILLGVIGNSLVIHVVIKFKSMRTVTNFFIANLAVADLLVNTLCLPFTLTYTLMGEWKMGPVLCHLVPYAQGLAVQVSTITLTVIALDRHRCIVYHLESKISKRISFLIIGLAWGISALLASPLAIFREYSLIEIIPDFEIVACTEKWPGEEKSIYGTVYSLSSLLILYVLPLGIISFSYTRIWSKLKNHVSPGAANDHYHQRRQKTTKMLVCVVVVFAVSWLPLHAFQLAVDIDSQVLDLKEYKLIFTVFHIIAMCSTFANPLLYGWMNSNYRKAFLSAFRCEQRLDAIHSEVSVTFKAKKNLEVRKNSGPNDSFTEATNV
Method in brief: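 Filtration binding assay on human Y2 receptor membrane preparation, 0.5 μg protein per well, in 50 mM HEPES pH 7.4 containing 5 mM MgCl2, 1 mM CaCl2 and 0.2% ovalbumin. Plates shake 2 h at room temperature before harvest and scintillation counting.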

[2] = target: T2, human NPY1 receptor (hY1R) (Homo sapiens, UniProt P25929); test: HTRF cAMP Gi assay, hY1R; assay type: cell-based; settings: CHO-K1 cells
T2 construct: expressed in transfected cells; host or cells: CHO-K1
T2 sequence (P25929 1-384): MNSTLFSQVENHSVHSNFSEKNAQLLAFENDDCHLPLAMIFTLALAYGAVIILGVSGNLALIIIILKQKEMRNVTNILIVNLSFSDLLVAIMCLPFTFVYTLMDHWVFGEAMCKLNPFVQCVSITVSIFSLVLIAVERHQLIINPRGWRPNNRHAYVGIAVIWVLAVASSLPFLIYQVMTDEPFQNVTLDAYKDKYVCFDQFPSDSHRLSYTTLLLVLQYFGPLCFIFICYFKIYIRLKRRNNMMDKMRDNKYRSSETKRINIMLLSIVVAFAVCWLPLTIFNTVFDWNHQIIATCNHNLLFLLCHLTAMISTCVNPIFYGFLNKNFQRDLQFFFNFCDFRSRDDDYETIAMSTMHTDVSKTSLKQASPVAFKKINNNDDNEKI
Method: (§1) Briefly, the production of intracellular cAMP will generate a competition between unlabeled cAMP and exogenously added d2-cAMP for anti-cAMP antibodies conjugated to cryptate. CHO-K1 cells stably expressing the human NPY1, NPY2, NPY4 and NPY5 receptors were used with the cells brought to life from a frozen stock immediately before assay performance. 2000 cells per well were applied for all four NPY receptor subtype assays. A 384-well format was used applying a total volume of 20 μl using 5 μl cells, 2.5 μl peptide agonist, 2.5 μl forskolin and 5 μl of each of the fluorophores. […] Concentration-response evaluation of compounds was performed with 11 concentrations of agonist peptides (covering 3 decades). EC50 values were calculated by nonlinear regression using sigmoid concentration-response with variable slope.

[3] = target: T3, human NPY4 receptor (hY4R) (Homo sapiens, UniProt P50391); test: HTRF cAMP Gi assay, hY4R; assay type: cell-based; settings: CHO-K1 cells
T3 construct: expressed in transfected cells; host or cells: CHO-K1
Method: as §1

[4] = Solubility determination; settings: for Sol6: pH 6; for Sol7: pH 7
Method in brief: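 Shake-flask style: 10 mg/ml peptide (TFA salt), 0.1 M sodium diphosphate pH 6.4/7.0, 600 rpm, 2 h, RT; filter; dilute 1 mg/ml in 50% MeCN; RP-UPLC, 0–100% B over 2 min, 50 °C. Solubility = sample/control area ratio. Final pH recorded.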

[5] = target: T4, human NPY5 receptor (hY5R) (Homo sapiens, UniProt Q15761); test: HTRF cAMP Gi assay, hY5R
T4 sequence (Q15761 1-445): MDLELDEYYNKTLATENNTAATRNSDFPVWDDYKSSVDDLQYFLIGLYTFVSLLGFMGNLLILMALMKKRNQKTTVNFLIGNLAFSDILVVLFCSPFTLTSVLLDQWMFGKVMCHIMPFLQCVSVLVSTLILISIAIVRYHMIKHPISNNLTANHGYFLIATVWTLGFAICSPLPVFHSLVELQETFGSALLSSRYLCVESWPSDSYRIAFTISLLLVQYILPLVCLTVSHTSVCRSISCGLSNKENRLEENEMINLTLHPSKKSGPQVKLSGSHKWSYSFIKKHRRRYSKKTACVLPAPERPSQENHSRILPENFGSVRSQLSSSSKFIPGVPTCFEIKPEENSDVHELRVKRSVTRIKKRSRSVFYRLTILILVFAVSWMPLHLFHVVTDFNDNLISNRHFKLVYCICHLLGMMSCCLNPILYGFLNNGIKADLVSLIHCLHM

T3 sequence (P50391 whole entry): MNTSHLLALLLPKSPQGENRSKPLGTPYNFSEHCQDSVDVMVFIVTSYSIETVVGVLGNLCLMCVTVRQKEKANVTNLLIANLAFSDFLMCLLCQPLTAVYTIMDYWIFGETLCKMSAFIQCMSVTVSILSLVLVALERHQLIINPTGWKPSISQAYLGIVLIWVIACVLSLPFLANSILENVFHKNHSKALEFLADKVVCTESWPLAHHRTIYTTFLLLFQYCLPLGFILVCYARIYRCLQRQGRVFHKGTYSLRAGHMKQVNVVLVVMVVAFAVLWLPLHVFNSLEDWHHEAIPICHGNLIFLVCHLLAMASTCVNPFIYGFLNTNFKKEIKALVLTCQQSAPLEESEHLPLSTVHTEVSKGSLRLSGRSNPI

pKi [1]	pEC50 [2]	pEC50 [3]	Sol6 [4] [mg/mL]	Sol7 [4] [mg/mL]	pEC50 [5]	Ki ([1]; Table 8, DMSO stock, read-out: hY2R RLB Ki (nM) DMSO) [nM]	SMILES
8.47	< 5.30	< 5.30	8.9	9.1	< 5.30		CC[C@H](C)[C@H](NC(=O)[C@H](CCC(=O)O)NC(=O)[C@H](CCC(=O)O)NC(=O)[C@@H]1CCCN1C(=O)[C@H](CO)NC(=O)[C@H](C)NC(=O)[C@H](CCC(=O)O)NC(=O)[C@H](CCC(=O)O)NC(=O)[C@H](CCC(=O)O)NC(=O)[C@@H]1CCCN1C(=O)[C@H](CCCCNC(=O)CCCCCNC(=O)CC[C@H](NC(=O)CCCCCCCCCCCCCCCCC(=O)O)C(=O)O)NC(=O)[C@H](CCC(=O)O)NC(=O)[C@@H]1CCCN1C(=O)[C@H](C)NC(=O)CC(C)C)C(=O)N[C@@H](CCC(N)=O)C(=O)N[C@@H](CCCNC(=N)N)C(=O)N[C@@H](Cc1ccc(O)cc1)C(=O)N[C@@H](Cc1ccc(O)cc1)C(=O)N[C@H](C(=O)N[C@@H](CO)C(=O)N[C@@H](CC(C)C)C(=O)N[C@@H](CCCNC(=N)N)C(=O)N[C@@H](Cc1c[nH]cn1)C(=O)N[C@@H](Cc1ccc(O)cc1)C(=O)N[C@@H](Cc1ccc(O)cc1)C(=O)N[C@@H](CC(N)=O)C(=O)N[C@@H](Cc1c[nH]c2ccccc12)C(=O)N[C@@H](CC(C)C)C(=O)N[C@H](C(=O)N[C@@H](CCCNC(=N)N)C(=O)N[C@@H](CCC(N)=O)C(=O)N[C@@H](CCCNC(=N)N)C(=O)N[C@@H](Cc1ccc(O)cc1)C(N)=O)[C@@H](C)O)C(C)C [Compound 193, N{alpha-4}-(3-methylbutanoyl)-N{epsilon-7}-(6-[(4S)-4-carboxy-4-(17-carboxyheptadecanamido)butanamido]hexanoyl)-[4A,7K,9E,11E,17I,18Q,22V,28Y,30W,31L]-hPYY(4-36)]
9.19	< 5.30	< 5.30	9.1	9.1	< 5.30		CC[C@H](C)[C@H](NC(=O)[C@H](CCC(=O)O)NC(=O)[C@H](CCC(=O)O)NC(=O)[C@@H]1CCCN1C(=O)[C@@H](NC(=O)[C@H](C)NC(=O)[C@H](CC(=O)O)NC(=O)[C@H](C)NC(=O)[C@H](CCC(=O)O)NC(=O)[C@@H]1CCCN1C(=O)[C@H](CCCCNC(=O)CCCCCNC(=O)CC[C@H](NC(=O)CCCCCCCCCCCCCCCCC(=O)O)C(=O)O)NC(=O)[C@H](CCC(=O)O)NC(=O)[C@@H]1CCCN1C(=O)[C@H](C)NC(=O)CC(C)C)[C@@H](C)O)C(=O)N[C@@H](CCC(N)=O)C(=O)N[C@@H](CCCNC(=N)N)C(=O)N[C@@H](Cc1ccc(O)cc1)C(=O)N[C@@H](Cc1ccc(O)cc1)C(=O)N[C@H](C(=O)N[C@@H](C)C(=O)N[C@@H](CC(C)C)C(=O)N[C@@H](CCCNC(=N)N)C(=O)N[C@@H](Cc1c[nH]cn1)C(=O)N[C@@H](Cc1ccc(O)cc1)C(=O)N[C@@H](Cc1ccc(O)cc1)C(=O)N[C@@H](CC(N)=O)C(=O)N[C@@H](Cc1c[nH]c2ccccc12)C(=O)N[C@@H](CC(C)C)C(=O)N[C@H](C(=O)N[C@@H](CCCNC(=N)N)C(=O)N[C@@H](CCC(N)=O)C(=O)N[C@@H](CCCNC(=N)N)C(=O)N[C@@H](Cc1ccc(O)cc1)C(N)=O)[C@@H](C)O)C(C)C [Compound 184, N{alpha-4}-(3-methylbutanoyl)-N{epsilon-7}-(6-[(4S)-4-carboxy-4-(17-carboxyheptadecanamido)butanamido]hexanoyl)-[4A,7K,9E,10A,13T,17I,18Q,22V,23A,28Y,30W,31L]-hPYY(4-36)]
9.03	< 5.30	< 5.30	10.0	>10.0	< 5.30	6.6	CC[C@H](C)[C@H](NC(=O)[C@H](CCC(=O)O)NC(=O)[C@H](CCC(=O)O)NC(=O)[C@@H]1CCCN1C(=O)[C@H](CO)NC(=O)[C@H](C)NC(=O)[C@H](CC(=O)O)NC(=O)[C@H](CCC(=O)O)NC(=O)[C@H](CCC(=O)O)NC(=O)[C@@H]1CCCN1C(=O)[C@H](CCCCNC(=O)CCCCCNC(=O)CC[C@H](NC(=O)CCCCCCCCCCCCCCCCC(=O)O)C(=O)O)NC(=O)[C@H](C)NC(=O)[C@@H]1CCCN1C(=O)[C@H](C)NC(=O)CC(C)C)C(=O)N[C@@H](CCC(N)=O)C(=O)N[C@@H](CCCNC(=N)N)C(=O)N[C@@H](Cc1ccc(O)cc1)C(=O)N[C@@H](Cc1ccc(O)cc1)C(=O)N[C@H](C(=O)N[C@@H](CO)C(=O)N[C@@H](CC(C)C)C(=O)N[C@@H](CCCNC(=N)N)C(=O)N[C@@H](Cc1c[nH]cn1)C(=O)N[C@@H](Cc1ccc(O)cc1)C(=O)N[C@@H](Cc1ccc(O)cc1)C(=O)N[C@@H](CC(N)=O)C(=O)N[C@@H](Cc1c[nH]c2ccccc12)C(=O)N[C@@H](CC(C)C)C(=O)N[C@H](C(=O)N[C@@H](CCCNC(=N)N)C(=O)N[C@@H](CCC(N)=O)C(=O)N[C@@H](CCCNC(=N)N)C(=O)N[C@@H](Cc1ccc(O)cc1)C(N)=O)[C@@H](C)O)C(C)C [Compound 63, N{alpha-4}-(3-methylbutanoyl)-N{epsilon-7}-(6-[(4S)-4-carboxy-4-(17-carboxyheptadecanamido)butanamido]hexanoyl)-[4A,6A,7K,9E,17I,18Q,22V,28Y,30W,31L]-hPYY(4-36)]
9.00	< 5.30	< 5.30	10.0	9.5	< 5.30		CC[C@H](C)[C@H](NC(=O)[C@H](CCC(=O)O)NC(=O)[C@H](CCC(=O)O)NC(=O)[C@@H]1CCCN1C(=O)[C@H](CCC(=O)O)NC(=O)[C@H](C)NC(=O)[C@H](CC(=O)O)NC(=O)[C@H](CCC(=O)O)NC(=O)[C@@H]1CCCN1C(=O)[C@@H]1CCCN1C(=O)[C@H](CCCCNC(=O)CCCCCNC(=O)CC[C@H](NC(=O)CCCCCCCCCCCCCCCCC(=O)O)C(=O)O)NC(=O)[C@H](CCC(=O)O)NC(=O)[C@@H]1CCCN1C(=O)[C@H](C)NC(=O)CC(C)C)C(=O)N[C@@H](CCC(N)=O)C(=O)N[C@@H](CCCNC(=N)N)C(=O)N[C@@H](Cc1ccc(O)cc1)C(=O)N[C@@H](Cc1ccc(O)cc1)C(=O)N[C@H](C(=O)N[C@@H](CO)C(=O)N[C@@H](CC(C)C)C(=O)N[C@@H](CCCNC(=N)N)C(=O)N[C@@H](Cc1c[nH]cn1)C(=O)N[C@@H](Cc1ccc(O)cc1)C(=O)N[C@@H](Cc1ccc(O)cc1)C(=O)N[C@@H](CC(N)=O)C(=O)N[C@@H](Cc1c[nH]c2ccccc12)C(=O)N[C@@H](CC(C)C)C(=O)N[C@H](C(=O)N[C@@H](CCCNC(=N)N)C(=O)N[C@@H](CCC(N)=O)C(=O)N[C@@H](CCCNC(=N)N)C(=O)N[C@@H](Cc1ccc(O)cc1)C(N)=O)[C@@H](C)O)C(C)C [Compound 118, N{alpha-4}-(3-methylbutanoyl)-N{epsilon-7}-(6-[(4S)-4-carboxy-4-(17-carboxyheptadecanamido)butanamido]hexanoyl)-[4A,7K,9P,13E,17I,18Q,22V,28Y,30W,31L]-hPYY(4-36)]
